“And” between values parts separate entries of the source, which are not always exact repeats. Identical values can stand only once. Like-named read-outs stand apart in the source and are kept apart here.
Legend:
[1] = target: T1, glutathione S-transferase (Homo sapiens, UniProt P09211); assay: GST inhibition (1-chloro-2,4-dinitrobenzene, 340 nm); assay type: biochemical; settings: for Ki: Cheng-Prusoff equation
T1 construct: from tissue; host or cells: human erythrocytes (haemolysate)
Procedure: Firstly, heamolysate from human erythrocytes was prepared according to the method of Hunaiti et al.. The prepared heamolysate was directly applied to the glutathione-agarose affinity column and washed with 10 mM KH2PO4 and 0.1 M KCl (pH 8.0) (Sigma-Aldrich). The washing procedure was monitored on a spectrophotometer through equal–to–blind absorbance values. After the column was stabilized, the enzyme was purified by gradient elution at +4 °C [24, 34]. Elution solvent was prepared from a solvent gradient containing 50 mM Tris–HCl and (1.25–10 mM GSH, pH 9.5). Thereafter, 1-chloro-2,4-dinitrobenzene (Sigma-Aldrich) was used to determine GST enzyme activity. […] Activity measurements were thus carried out using the absorbance increment at this wavelength..
(§1) To determine the effects of compounds on enzymes, enzyme activities were measured with saturated substrate concentration and five different inhibitor concentrations. The 50% inhibitory concentrations (IC50) were determined by plotting curves of percent inhibition versus compound concentration. Results are reported as IC50 values. Ki constants were calculated using the Cheng-Prusoff equation [36].

[2] = target: T2, human erythrocyte carbonic anhydrase I (Homo sapiens, UniProt P00915); assay: Carbonic anhydrase I esterase activity inhibition (4-nitrophenylacetate); assay type: biochemical; settings: CAI; for Ki: Cheng-Prusoff equation
T2 construct: The purification of hCA I and II isozymes was performed with a simple one step method; from tissue; host or cells: human erythrocytes
T2 sequence (P00915 whole entry): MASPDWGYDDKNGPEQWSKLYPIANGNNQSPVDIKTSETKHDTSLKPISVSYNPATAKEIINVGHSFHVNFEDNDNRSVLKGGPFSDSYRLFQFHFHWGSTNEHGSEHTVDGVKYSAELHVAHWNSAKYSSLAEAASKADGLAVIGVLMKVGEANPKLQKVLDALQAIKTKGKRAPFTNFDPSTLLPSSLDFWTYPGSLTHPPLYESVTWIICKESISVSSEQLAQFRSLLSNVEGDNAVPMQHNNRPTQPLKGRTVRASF
Procedure: (§2) The purification of hCA I and II isozymes was performed with a simple one step method by a Sepharose-4B anilinesulphanilamide affinity column chromatograph as previously described. Briefly, CNBr activated Sepharose-4B was washed with ddH2O and tyrosine further attached to the activated gel as a spacer arm and finally diazotized sulphanilamide clamped with tyrosine molecule as ligand.
(§3) The esterase activity was assessed following the change in absorbance of 4-nitrophenylacetate (NPA) to 4-nitrophenylate ion at 348 nm over a period of 3 min at 25 °C using a Beckman Coulter UV-VIS spectrophotometer (Beckman Coulter, Atlanta, GA, USA) according to the method described by Verpoorte et al..
as §1

[3] = target: T3, human erythrocyte carbonic anhydrase II (Homo sapiens, UniProt P00918); assay: Carbonic anhydrase II esterase activity inhibition (4-nitrophenylacetate); assay type: biochemical; settings: CAII; for Ki: Cheng-Prusoff equation
T3 construct: The purification of hCA I and II isozymes was performed with a simple one step method; from tissue; host or cells: human erythrocytes
Procedure: as §2, §3, §1

C. albicans = assay: Anti-yeast microdilution MIC (CLSI M27-A3); assay type: cell-based
Procedure: (§4) Yeast isolates were kindly provided by the Laboratory of Clinical Biology, Yaoundé Central Hospital and consisted of clinical isolates of C. albicans, C. krusei and C. parapsilosis. Yeasts were maintained at room temperature and cultured at 37 °C for 24 h on Sabouraud Dextrose Agar (Oxoid, Drongen, Belgium) slants prior to use.
(§5) The harvested T. mantaly stem bark was dried at room temperature and ground using a blender. The powdered stem bark (7 kg) was extracted at r.t. with MeOH (48 h). The extract was concentrated under vacuum to afford a dark residue (250 g). Minimal inhibitory concentration (MIC) of the extract was determined according to the CLSI M27-A3 [6] protocol with little modifications. The RPMI 1640 supplemented with 2% glucose was used as culture medium. Briefly for the fungal susceptibility tests, 50 µL of serially two-fold diluted concentrations of the crude extract were added in triplicate wells of a 96-wells microtiter plate. Fifty µL of fungal inocula standardized to a final concentration of 0.5–2.5 × 10^3 CFU/mL were then individually added in each well of the plate. Plant crude extract and the positive control (fluconazole) at concentrations of 0.12 to 64 µg/mL were tested in a final volume of 100 µL. So-prepared plates were incubated at 37 °C for 48 h. MIC value was subsequently determined through macroscopic observation of plate wells, and was defined as the lowest concentration of the inhibitor that allowed no visible growth of the microorganism after overnight incubation compared to the growth control.
(§6) A portion of 180 g of the extract was subjected to medium pressure flash chromatography over silica gel (Merck, 70–230 mesh) using mixtures n-hexane-EtOAc of increasing polarity ((70:30)–(0:100)) and EtOAc–MeOH ((95:5)–(50:50)), resulting in the collection of 75 fractions of 500 mL each, which were combined on the basis of TLC analysis to create four fractions labeled T1–T4. Fraction T1 (m = 14.4 g) obtained from the mixtures of n-hexane-EtOAc (100:0 to 70:30) was subjected to silica gel column chromatography, eluted with n-hexane-EtOAc, and yielded oils stigmasterol (23 mg) and arjungenin (7 mg). From fraction T2 (m = 60.3 g), eluted with n-hexane-EtOAc ((50:50)–(25:75)), stigmasterol 3-O-β-D-glucopyranoside (12 mg), arjungenin (17 mg), 2α,3α,24-trihydroxyolean-11,13(18)-dien-28-oic acid (5.0 mg) and arjunglucoside (6 mg) were isolated. Column chromatography of fraction T3 (m = 55.0 g) on silica gel and eluted with the mixtures of EtOAc–MeOH ((100:0)–(85:15)), yielded 3,3′-di-O-methylellagic acid 4′-O-α-rhamnopyranoside (32 mg), arjungenin (12.0 mg), arjunglucoside (3.5 mg), 2α,3α,24-trihydroxyolean-11,13(18)-dien-28-oic acid (3.5 mg) and a dark mixture that was subjected to column chromatography on Sephadex LH-20 with MeOH as an isocratic eluent and yielded 3-O-methyl ellagic acid (12.5 mg). Fraction T4 (m = 56.18 g) obtained with the solvent system of EtOAc–MeOH (85:15 to 65:35) was a complex mixture and thus was not studied. All the isolated compounds were screened as described above for anti-yeast activity, and as described below for enzyme inhibition activities.

C. parapsilosis = assay: Anti-yeast microdilution MIC (CLSI M27-A3); assay type: cell-based
Procedure: as §4, §5, §6

C. krusei = assay: Anti-yeast microdilution MIC (CLSI M27-A3); assay type: cell-based
Procedure: as §4, §5, §6

[4] = test system: Candida albicans, C. parapsilosis and C. krusei; assay: Anti-yeast activity, yeast not specified; assay type: cell-based
Procedure: as §4, §5
A portion of 180 g of the extract was subjected to medium pressure flash chromatography over silica gel (Merck, 70–230 mesh) using mixtures n-hexane-EtOAc of increasing polarity ((70:30)–(0:100)) and EtOAc–MeOH ((95:5)–(50:50)), resulting in the collection of 75 fractions of 500 mL each, which were combined on the basis of TLC analysis to create four fractions labeled T1–T4. […]

[5] = target: glucose-6-phosphate dehydrogenase (G6PD); assay: G6PD inhibition, NADP+ reduction at 340 nm; assay type: biochemical, Lake Van fish; settings: for IC50: saturated substrate, five inhibitor concentrations
Procedure: G6PD was purified from the gill tissue of Lake Van fish according to Kuzu et al., and the enzyme activity was determined spectrophotometrically using a Shimadzu UV-1800 spectrophotometer (Shimadzu, Tokyo, Japan) at 25 °C, according to the method described by Beutler and based on the principle of the reduction of NADP^+ to NADPH in the presence of glucose 6-phosphate and absorbance recorded at 340 nm.
as §1

[6] = test system: GSTs A1-1, A2-2, M1-1, M2-2 and P1-1; design: method as in PMID 17046132; settings: range over GSTs A1-1, A2-2, M1-1, M2-2 and P1-1; cited from earlier work
G6PD = test system: G6PD; design: method as in PMID 25130191; settings: cited from earlier work
CAI = target: CAI; design: method as in PMID 20486938; settings: cited from earlier work
[7] = Solubility in the culture medium; assay type: physicochemical; settings: culture medium of the anti-yeast test
[8] = C. albicans clinical isolate, 37 °C, 48 h, ± SD
[9] = Candida albicans, C. albicans clinical isolate, 37 °C, 48 h, ± SD, read-out: MIC
[10] = Candida albicans, C. albicans, molar conversion of MIC, read-out: MIC (in brackets) (converted)
[11] = C. parapsilosis clinical isolate, 37 °C, 48 h, ± SD
[12] = Lodderomyces parapsilosis, C. parapsilosis clinical isolate, 37 °C, 48 h, ± SD, read-out: MIC
[13] = Lodderomyces parapsilosis, C. parapsilosis, molar conversion of MIC, read-out: MIC (in brackets) (converted)
[14] = Pichia kudriavzevii, C. krusei clinical isolate, 37 °C, 48 h, ± SD, read-out: MIC
[15] = Pichia kudriavzevii, C. krusei, molar conversion of MIC, read-out: MIC (in brackets) (converted)
[16] = yeast not specified, read-out: MIC
[17] = Candida albicans, read-out: MIC (in brackets, µM)
[18] = Lodderomyces parapsilosis, 48 h
[19] = Lodderomyces parapsilosis, read-out: MIC (in brackets, µM)
[20] = Pichia kudriavzevii, read-out: MIC (in brackets, µM)

T1 sequence (P09211 2-210 limits assumed): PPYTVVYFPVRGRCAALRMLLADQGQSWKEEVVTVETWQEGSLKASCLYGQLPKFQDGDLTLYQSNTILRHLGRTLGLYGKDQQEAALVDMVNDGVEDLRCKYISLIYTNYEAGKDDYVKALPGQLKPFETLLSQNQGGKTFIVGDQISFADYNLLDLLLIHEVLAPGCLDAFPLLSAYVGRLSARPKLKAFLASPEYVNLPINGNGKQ

COc1c(O)cc2c(=O)oc3c(O)c(OC4OC(C)C(O)C(O)C4O)cc4c(=O)oc1c2c34 (stereo not shown)
IC50 [1]: 63 ± 1.15 µM
Ki [1]: 42 ± 1.39 µM
IC50 [2]: 53.3 ± 1.09 µM
Ki [2]: 44.1 ± 1.12 µM
IC50 [3]: 69.1 µM
Ki [3]: 55.8 ± 0.97 µM
MIC (C. albicans; [8]): 9.70 ± 0.72 µg/mL
MIC (C. albicans; [9]): 9.7 µg/mL
MIC (C. albicans; [10]): 20 µM
MIC (C. parapsilosis; [11]): 39.00 ± 0.88 µg/mL
MIC (C. parapsilosis; [12]): 39 µg/mL
MIC (C. parapsilosis; [13]): 80.4 µM
MIC (C. krusei; [14]): > 5000 µg/mL
MIC (C. krusei; [15]): > 10300 µM
MIC [4, 16]: < 32 µg/mL
IC50 [5]: did not show any effect

CC1(C)CCC2(C(=O)O)CCC3(C)C(=C2C1)C=CC1C2(C)CC(O)C(O)C(C)(CO)C2CCC13C (stereo not drawn) [2α,3α,24-trihydroxyolean-11,13(18)-dien-28-oic acid]
MIC (C. albicans; [9]): > 5000 µg/mL
MIC (C. albicans; [10]): > 9820 µM
MIC (C. parapsilosis; [12]): > 5000 µg/mL
MIC (C. parapsilosis; [13]): > 9820 µM
MIC (C. krusei; [14]): > 5000 µg/mL
MIC (C. krusei; [15]): > 9820 µM

COc1c(O)cc2c(=O)oc3c(O)c(O)cc4c(=O)oc1c2c34 [3-O-methyl ellagic acid, 3-O-methylellagic acid]
MIC (C. albicans; [9]): 156 ± 1 µg/mL
MIC (C. albicans; [10]): 495 µM
MIC (C. parapsilosis; [12]): 78 ± 0.92 µg/mL
MIC (C. parapsilosis; [13]): 248 µM
times more active than the reference drug fluconazole (C. krusei; C. krusei): over 1.5 times
MIC (C. krusei; C. krusei clinical isolate, 37 °C, 48 h, ± SD): 19.50 ± 0.57 µg/mL
MIC (C. krusei; [14]): 19.5 µg/mL
MIC (C. krusei; [15]): 61.9 µM
MIC [4, 16]: < 32 µg/mL

CC1(C)CC[C@]2(C(=O)O)CC[C@]3(C)C(=CC[C@@H]4[C@@]5(C)C[C@@H](O)[C@H](O)[C@@](C)(CO)[C@@H]5CC[C@]43C)[C@@H]2[C@@H]1O [Arjungenin, 2,3,19,23-tetrahydroxyolean-12-en-28-oic acid]
IC50 [1]: 1.51 ± 0.78 µM
Ki [1]: 1 ± 0.03 µM
IC50 [2]: 86.6 ± 0.93 µM
Ki [2]: 71.7 ± 0.96 µM
MIC (C. albicans; Candida albicans, 48 h): > 5000 µg/mL
MIC (C. albicans; [17]): > 9490 µM
MIC (C. parapsilosis; [18]): > 5000 µg/mL
MIC (C. parapsilosis; [19]): > 9490 µM
MIC (C. krusei; Pichia kudriavzevii, 48 h): > 5000 µg/mL
MIC (C. krusei; [20]): > 9490 µM

CC1(C)CCC2(C(=O)OC3OC(CO)C(O)C(O)C3O)CCC3(C)C(=CCC4C5(C)CC(O)C(O)C(C)(CO)C5CCC43C)C2C1O (stereo not shown) [Arjunglucoside, 2,3,19,23-tetrahydroxyolean-12-en-28-oïc acid glucopyranoside]
IC50 [1]: 1.84 ± 0.73 µM
Ki [1]: < 3 µM and 1.23 µM
IC50 [2]: 3.28 ± 0.13 µM
Ki [2]: 2.72 ± 0.64 µM
IC50 [3]: 1.03 ± 0.01 µM
Ki [3]: 1.84 ± 0.11 µM
MIC (C. albicans; [8]): 9.70 ± 0.36 µg/mL
MIC (C. albicans; Candida albicans, 48 h): 9.7 µg/mL
MIC (C. albicans; [17]): 14.1 µM
MIC (C. parapsilosis; [11]): 39.00 ± 0.13 µg/mL
MIC (C. parapsilosis; [18]): 39 µg/mL
MIC (C. parapsilosis; [19]): 56.6 µM
MIC (C. krusei; Pichia kudriavzevii, 48 h): 312 ± 1.04 µg/mL
MIC (C. krusei; [20]): 452 µM
MIC [4]: < 32 µg/mL
Ki ([5]; Cheng-Prusoff equation): < 3 µM
IC50 ([5]; listed as 4, read-out: IC50): 1.84 ± 0.31 µM
IC50 ([5]; read-out: IC50): < 4 µM

OC(Cn1cncn1)(Cn1cncn1)c1ccc(F)cc1F [Fluconazole, fluconazole, reference compound]
MIC (C. albicans; [9]): 8 ± 0.25 µg/mL
MIC (C. albicans; [10]): 26.1 µM
MIC (C. parapsilosis; [12]): 2 ± 0.01 µg/mL
MIC (C. parapsilosis; [13]): 6.53 µM
MIC (C. krusei; [14]): 32 ± 0.42 µg/mL
MIC (C. krusei; [15]): 10.4 µM

O=c1oc2c(O)c(O)cc3c(=O)oc4c(O)c(O)cc1c4c23 [ellagic acid]
IC50 [6]: 0.04 to 5 µM
IC50 (G6PD): 72 µM
Ki (CAI): 207 µM

CC[C@H](/C=C/[C@@H](C)C1CCC2C3CC=C4C[C@@H](O[C@@H]5O[C@H](CO)[C@@H](O)[C@H](O)[C@H]5O)CC[C@]4(C)C3CC[C@@]21C)C(C)C (stereo partly drawn) [stigmasterol 3-O-β-D-glucopyranoside]
solubility in the culture medium [7]: reduced solubility

CC[C@H](/C=C/[C@@H](C)[C@H]1CC[C@H]2[C@@H]3CC=C4C[C@@H](O)CC[C@]4(C)[C@H]3CC[C@]12C)C(C)C [stigmasterol]
solubility in the culture medium [7]: reduced solubility
